Source: patent publication US20160114044A1, “COMPOSITON BASED ON BIOCOMPATIBLE ANIONIC POLYMER FOR DRUG DELIVERY AND PREPARING METHOD THEREOF” (RESEARCH & BUSINESS FOUNDATION SUNGKYUNKWAN UNIVERSITY, priority 2014, published 2016)

Assays:
[1] = Stability and size of micro-dispersions in distilled water; assay type: physicochemical; conditions: dispersed in water without γ-PGA
Protocol: The particle size of the redispersed solutions of γ-PGA/Ptx and γ-PGA/Imq was measured using Electrophoretic Light Scattering-ELS Z (Otsuka Electronics, Osaka, Japan). The stability of the dispersion was assessed by observing the samples for aggregation and phase separation after storing the sample at 4° C. for 1 week after dispersion in distilled water. The morphology of theses micro-dispersions were observed through FE-SEM (JSM-7000F, JEOL Ltd. Japan) and FE-TEM (JEM-2100F HR, JEOL Ltd. Japan). For the SEM sample preparation, the lyophilized and redispersed suspension was deposited on a silicon wafer plate and vacuum-dried to remove water, followed by platinum coating using a Technics Hummer II sputter coater at 30 mA for 90 s. For TEM sample preparation, a drop (2 μL) of redispersed suspension was placed onto a formvar/carbon coated copper grid, followed by vacuum-drying to evaporate water.
Distinct monodisperse peaks for γ-PGA/Imq and γ-PGA/Ptx/Imq were observed, indicating uniform size distribution (FIG. 3). In case of γ-PGA/Ptx, two peaks were observed, which might be due to a high aspect ratio of the paclitaxel crystal.

[2] = In-vitro viability assay (MTS); assay type: cell-based; conditions: mouse, bone marrow derived dendritic cells (BMDCs), after 48 h, normalized to untreated cells, read-out: cell viability / proliferation of BMDCs
Protocol: BMDCs were isolated from mouse bone marrow as reported previously. MTS assay for analysis of mitochondrial activity was used as a measure of cell viability. 1×10^4 cells in 100 μL media were seeded per well in a 96 well plate (Corning Costar, Cambridge, Mass., USA). 100 μl of sample dispersion was added to cell culture media and incubated for 24 h and 48 h at 37° C. and 5% CO2. After the incubation, 20 μL of MTS solution-Cell Titer 96 Aqueous One Solution kit (Promega, Madison, Wis., USA) was added to each well and incubated for 2 h. The absorbance of the samples was measured at 490 nm (VersaMax, Molecular Devices, Sunnyvale, Calif., USA) and normalized with respect to absorbance of untreated cells.

Row | dispersion state in water without γ-PGA [1] | SMILES | viability at 48 h [2] [%]
1 | aggregation and precipitation | CC(C)Cn1cnc2c(N)nc3ccccc3c21 [imiquimod] | 250
2 | aggregation and precipitation | CC(=O)O[C@H]1C(=O)[C@@]2(C)[C@H]([C@H](OC(=O)c3ccccc3)[C@]3(O)C[C@H](OC(=O)[C@H](O)[C@@H](NC(=O)c4ccccc4)c4ccccc4)C(C)=C1C3(C)C)[C@]1(OC(C)=O)CO[C@@H]1C[C@@H]2O [paclitaxel] | 
